Values after ≈ are worked out from the molar mass of the structure shown.
What was measured:
S. aureus 340 = experiment: MIC, broth microdilution; assay type: cell-based, Staphylococcus aureus; conditions: for MIC: Staphylococcus aureus, 340, 24 h; for MIC S. aureus 340: 24 h
Protocol: (§1) Antimicrobial activity of the compounds was studied by determination of minimal inhibitory concentrations (MIC) according to the NCCLS guidelines M7-A2 using the microbroth dilution methods. The bacteria strains were grown on trypticase soy agar (Becton Dickinson) at 37 °C for 24 h. Inocula were prepared in TCE (tryptone 0.1%, […], wt/vol) by ajusting the turbidity at 623 nm to obtain 1–3 10^5 CFU/mL.
(§2) Antimicrobial activities of the compounds were determined by using a broth microdilution method performed in sterile 96-well microplates. All compounds were solubilized in water at a concentration of 10 mM and were transferred to each microplate well in order to obtain a two-fold serial dilution in 100 µL of broth and 100 µL of inoculum containing 2–6 10^5 CFU of each bacterium were added to each well. Some wells were reserved for positive controls and inoculum viability.

P. aeruginosa 1051575 = experiment: MIC, broth microdilution; assay type: cell-based, Pseudomonas aeruginosa; conditions: for MIC: Pseudomonas aeruginosa, 1051575, 24 h; for MIC / MIC P. aeruginosa 1051575: 24 h
Protocol: as §1, §2

[1] = test system: Chinese hamster Ovary cells (CHO-K1); experiment: Cytotoxicity assay (WST-1 / Neutral Red); assay type: cell-based; conditions: 24-h incubation; for IC50: Cricetulus griseus, 24 h
Protocol: The cytotoxic activities of compounds were assessed on Chinese hamster Ovary cells (CHO-K1) provided from ATCC-LGC Standards Sarl (Molsheim, France). Cells were maintained in Mc Coy’s 5A (CHO) medium supplemented with 10% bovine calf serum, 2 mM glutamine, and 100 U mL^−1/10 µg mL^−1 penicillin/streptomycin mixtures. For the cytotoxicity experiments, they were seeded in 96-well plates and incubated at 37 °C in humidified atmosphere containing 5% CO2 overnight, then concentrations of compounds were incorporated in triplicate cultures. After a 24-h incubation period at 37 °C, cells were submitted to three successive washes in phosphate buffer saline (PBS) and cell viability was evaluated by two different vital dyes: • i. A first set of cell cultures was incubated in PBS containing 10% WST-1 for 30 min at 37 °C, 5% CO2. Cell viability was evaluated by the assessment of WST-1 absorbance at 450 nm in a microplate spectrophotometer. • ii. A second set of cell cultures was placed into Neutral Red medium (50 μg mL^−1 Neutral Red in complete medium) and incubated for 3 h at 37 °C, 5% CO2. Then the Neutral Red medium was removed and the distaining solution (50% ethanol, 1% acetic acid, 49% distilled water; 50 µL per well) was added into the wells. The plates were shaken for 15–20 min at room temperature in the dark. Cell viability was evaluated by the assessment of absorbance at 540 nm in a microplate spectrophotometer.
Results were expressed as percentages of cell viability about the control (culture medium-only), which corresponded to 100% cell viability. Dose-response curves were calculated by non-linear regression analysis with TableCurve 2D software (V 5.0.1) (Systat Software Inc., San Jose, CA, USA). The Inhibitory Concentration 50% (IC50) was defined as the concentration of compounds that induced a 50% decrease of viable cells.

S. aureus ATCC 25923 = experiment: MIC, broth microdilution; assay type: cell-based, Staphylococcus aureus; conditions: ATCC strain; for MIC: Staphylococcus aureus, ATCC25923, 24 h
Protocol: as §1, §2

P. aeruginosa ATCC 27853 = experiment: MIC, broth microdilution; assay type: cell-based, Pseudomonas aeruginosa; conditions: ATCC strain; for MIC: Pseudomonas aeruginosa, ATCC27853, 24 h; for MIC P. aeruginosa 27853: 24 h
Protocol: as §1, §2

E. faecalis ATCC29212 = experiment: MIC, broth microdilution; assay type: cell-based, Enterococccus faecalis; conditions: ATCC strain; for MIC: Enterococcus faecalis, ATCC29212, 24 h, read-out: MIC E. faecalis 29212; for MIC E. faecalis 29212: 24 h
Protocol: as §1, §2

E. coli 1956 = experiment: MIC, broth microdilution; assay type: cell-based, Escherichia coli; conditions: for MIC: Escherichia coli, 1956, 24 h; for MIC E. coli 1956: 24 h
Protocol: as §1, §2

E. coli ATCC 25922 = experiment: MIC, broth microdilution; assay type: cell-based, Escherichia coli; conditions: ATCC strain; for MIC: Escherichia coli, ATCC25922, 24 h; for MIC E. coli 25922: 24 h
Protocol: as §1, §2

S. intermedius 1051997 = experiment: MIC, broth microdilution; assay type: cell-based, Staphylococcus intermedius; conditions: for MIC: Staphylococcus intermedius, 1051997, 24 h; for Therapeutic Ratio (TR): IC50 (CHO)/MIC, S. intermedius
Protocol: as §1, §2

CC(C)OC(=O)CCC(C)C1CCC2C3C(O)CC4CC(NCCN(CCN)CCN)CCC4(C)C3CC(O)C12C (centres unmarked) [Claramine B19]
MIC (S. aureus 340): 14 mg/L (≈ 24.2 µM) | MIC (P. aeruginosa 1051575): 58 mg/L (≈ 100 µM) | IC50 [1]: 81 mg/L (≈ 140 µM)

COC(=O)CCC(C)C1CCC2C3C(O)CC4CC(NCCCNCCCCNCCCN)CCC4(C)C3CCC12C (centres unmarked) [Claramine C01]
MIC (S. aureus ATCC 25923): 4 mg/L (≈ 6.77 µM) | MIC (S. aureus 340): 4 mg/L (≈ 6.77 µM) | MIC (P. aeruginosa ATCC 27853): 30 mg/L (≈ 50.8 µM) | MIC (P. aeruginosa 1051575): 7 mg/L (≈ 11.8 µM) | MIC (E. faecalis ATCC29212): 15 mg/L (≈ 25.4 µM) | MIC (E. coli 1956): 60 mg/L (≈ 102 µM) | MIC (E. coli ATCC 25922): 30 mg/L (≈ 50.8 µM) | IC50 [1]: 24 mg/L (≈ 40.6 µM) | MIC (S. intermedius 1051997; 24 h): 2 mg/L (≈ 3.38 µM)

COC(=O)CCC(C)C1CCC2C3C(O)CC4CC(NCCCNCCCNCCCN)CCC4(C)C3CCC12C (centres unmarked) [Claramine C02]
MIC (S. aureus ATCC 25923): 4 mg/L (≈ 6.93 µM) | MIC (S. aureus 340): 4 mg/L (≈ 6.93 µM) | MIC (P. aeruginosa ATCC 27853): 29 mg/L (≈ 50.3 µM) | MIC (P. aeruginosa 1051575): 7 mg/L (≈ 12.1 µM) | MIC (E. faecalis ATCC29212): 15 mg/L (≈ 26 µM) | MIC E. coli 25922 (E. coli ATCC 25922): 15 mg/L (≈ 26 µM) | IC50 [1]: 22 mg/L (≈ 38.1 µM) | MIC (S. intermedius 1051997; 24 h): 2 mg/L (≈ 3.47 µM)

COC(=O)CCC(C)C1CCC2C3C(O)CC4CC(NCCCNCCCN)CCC4(C)C3CCC12C (centres unmarked) [Claramine C04]
MIC (S. aureus 340): 7 mg/L (≈ 13.5 µM) | MIC (P. aeruginosa 1051575): 26 mg/L (≈ 50 µM) | IC50 [1]: 68 mg/L (≈ 131 µM)

CC(C)OC(=O)CCC(C)C1CCC2C3C(O)CC4CC(NCCCNCCCNCCCN)CCC4(C)C3CCC12C (centres unmarked) [Claramine C17]
MIC (S. aureus ATCC 25923): 4 mg/L (≈ 6.61 µM) | MIC (S. aureus 340): 2 mg/L (≈ 3.31 µM) | MIC (P. aeruginosa ATCC 27853): 16 mg/L (≈ 26.4 µM) | Therapeutic Ratio (TR) (P. aeruginosa 1051575; IC50 (CHO)/MIC, P. aeruginosa): > 10 | MIC (E. faecalis ATCC29212): 8 mg/L (≈ 13.2 µM) | MIC (E. coli 1956): 10 mg/L (≈ 16.5 µM) | MIC (E. coli ATCC 25922): 16 mg/L (≈ 26.4 µM) | IC50 CHO [1]: 85 mg/L (≈ 141 µM) | IC50 [1]: > 60 mg/L | Therapeutic Ratio (TR) (S. intermedius 1051997): 65–114 | MIC (S. intermedius 1051997; 24 h): 0.8 mg/L (≈ 1.32 µM)

CC(C)OC(=O)CCC(C)C1CCC2C3C(O)CC4CC(NCCCNCCCCN)CCC4(C)C3CCC12C (centres unmarked) [Claramine C18]
MIC (S. aureus ATCC 25923): 7 mg/L (≈ 12.5 µM) | MIC (S. aureus 340): 7 mg/L (≈ 12.5 µM) | MIC P. aeruginosa 27853 (P. aeruginosa ATCC 27853): 14 mg/L (≈ 24.9 µM) | MIC P. aeruginosa 1051575 (P. aeruginosa 1051575): 14 mg/L (≈ 24.9 µM) | MIC E. faecalis 29212 (E. faecalis ATCC29212): 7 mg/L (≈ 12.5 µM) | MIC (E. coli 1956): 14 mg/L (≈ 24.9 µM) | MIC E. coli 25922 (E. coli ATCC 25922): 14 mg/L (≈ 24.9 µM) | IC50 [1]: 95 mg/L (≈ 169 µM) | MIC (S. intermedius 1051997; 24 h): 4 mg/L (≈ 7.12 µM)

CC(C)OC(=O)CCC(C)C1CCC2C3C(O)CC4CC(NCCCNCCCN)CCC4(C)C3CCC12C (centres unmarked) [Claramine C19]
MIC (S. aureus ATCC 25923): 7 mg/L (≈ 12.8 µM) | MIC S. aureus 340 (S. aureus 340): 2 mg/L (≈ 3.65 µM) | MIC (P. aeruginosa ATCC 27853): 28 mg/L (≈ 51.1 µM) | MIC P. aeruginosa 1051575 (P. aeruginosa 1051575): 14 mg/L (≈ 25.6 µM) | MIC (E. faecalis ATCC29212): 4 mg/L (≈ 7.3 µM) | MIC (E. coli 1956): 14 mg/L (≈ 25.6 µM) | MIC (E. coli ATCC 25922): 14 mg/L (≈ 25.6 µM) | Therapeutic Ratio (TR) (S. intermedius 1051997): 65–114 | MIC (S. intermedius 1051997; 24 h): 2 mg/L (≈ 3.65 µM)

CCOC(=O)CCC(C)C1CCC2C3C(O)CC4CC(NCCCNCCCCNCCCN)CCC4(C)C3CCC12C (centres unmarked) [Claramine C21]
MIC (S. aureus ATCC 25923): 4 mg/L (≈ 6.61 µM) | MIC (S. aureus 340): 4 mg/L (≈ 6.61 µM) | MIC (P. aeruginosa ATCC 27853): 15 mg/L (≈ 24.8 µM) | MIC (P. aeruginosa 1051575): 15 mg/L (≈ 24.8 µM) | MIC (E. faecalis ATCC29212): 2 mg/L (≈ 3.31 µM) | MIC (E. coli 1956): 30 mg/L (≈ 49.6 µM) | MIC (E. coli ATCC 25922): 15 mg/L (≈ 24.8 µM) | IC50 [1]: 45 mg/L (≈ 74.4 µM) | MIC (S. intermedius 1051997; 24 h): 4 mg/L (≈ 6.61 µM)

CC(C)OC(=O)CCC(C)C1CCC2C3C(O)CC4CC(NCCCN5CCN(CCCN)CC5)CCC4(C)C3CCC12C (centres unmarked) [Claramine C24]
MIC (S. aureus ATCC 25923): 8 mg/L (≈ 13 µM) | MIC S. aureus 340 (S. aureus 340): 8 mg/L (≈ 13 µM) | MIC (P. aeruginosa ATCC 27853): 30 mg/L (≈ 48.6 µM) | MIC P. aeruginosa 1051575 (P. aeruginosa 1051575): 30 mg/L (≈ 48.6 µM) | MIC (E. faecalis ATCC29212): 15 mg/L (≈ 24.3 µM) | MIC (E. coli 1956): 30 mg/L (≈ 48.6 µM) | MIC (E. coli ATCC 25922): 15 mg/L (≈ 24.3 µM) | MIC (S. intermedius 1051997; 24 h): 4 mg/L (≈ 6.48 µM)

CC(C)OC(=O)CCC(C)C1CCC2C3C(O)CC4CC(NCCN(CCN)CCN)CCC4(C)C3CCC12C (centres unmarked) [Claramine C25]
MIC (S. aureus 340): 14 mg/L (≈ 24.9 µM) | MIC (P. aeruginosa 1051575): 28 mg/L (≈ 49.7 µM) | IC50 [1]: 141 mg/L (≈ 250 µM)

CC(C)OC(=O)CCC(C)C1CCC2C3C(O)CC4CC(NCCCNCCCCN)CCC4(C)C3CCC12C (centres unmarked) [Claramine C27]
MIC S. aureus 25923 (S. aureus ATCC 25923; 24 h): 7 mg/L (≈ 12.5 µM) | MIC S. aureus 340 (S. aureus 340): 7 mg/L (≈ 12.5 µM) | MIC P. aeruginosa 27853 (P. aeruginosa ATCC 27853): 56 mg/L (≈ 99.7 µM) | MIC P. aeruginosa 1051575 (P. aeruginosa 1051575): 56 mg/L (≈ 99.7 µM) | MIC E. faecalis 29212 (E. faecalis ATCC29212): 28 mg/L (≈ 49.8 µM) | MIC E. coli 1956 (E. coli 1956): 28 mg/L (≈ 49.8 µM) | MIC E. coli 25922 (E. coli ATCC 25922): 56 mg/L (≈ 99.7 µM) | IC50 CHO [1]: 100 mg/L (≈ 178 µM) | MIC S. intermedius 1051997 (S. intermedius 1051997; 24 h): 7 mg/L (≈ 12.5 µM)

CC(C)OC(=O)CCC(C)C1CCC2C3CCC4CC(NCCCNCCCN)CCC4(C)C3CCC12C (centres unmarked) [Claramine E04]
MIC (S. aureus 340): 3 mg/L (≈ 5.64 µM) | MIC (P. aeruginosa 1051575): 3 mg/L (≈ 5.64 µM) | IC50 [1]: 13 mg/L (≈ 24.4 µM)

CC[C@H]1OC(=O)[C@H](C)[C@@H](O[C@H]2C[C@@](C)(OC)[C@@H](O)[C@H](C)O2)[C@H](C)[C@@H](O[C@@H]2O[C@H](C)C[C@H](N(C)C)[C@H]2O)[C@](C)(O)C[C@@H](C)C(=O)[C@H](C)[C@@H](O)[C@]1(C)O [Ery, Erythromycine, reference compound]
MIC (S. aureus ATCC 25923): 1 mg/L (≈ 1.36 µM) | MIC (S. aureus 340): 1 mg/L (≈ 1.36 µM) | MIC (E. faecalis ATCC29212): 1 mg/L (≈ 1.36 µM) | MIC (S. intermedius 1051997; 24 h): 1 mg/L (≈ 1.36 µM)

Colistine [reference compound]
MIC P. aeruginosa 27853 (P. aeruginosa ATCC 27853): 0.5 mg/L | MIC P. aeruginosa 1051575 (P. aeruginosa 1051575): 0.5 mg/L | MIC E. coli 1956 (E. coli 1956): 0.5 mg/L | MIC E. coli 25922 (E. coli ATCC 25922): 0.5 mg/L
